Results as given in patent US20260226527A1, “METHODS FOR IDENTIFYING HERBICIDAL COMPOUNDS” (SYNGENTA CROP PROTECTION AG, priority 2023, published 2026).

Biological target: T1, mature Arabidopsis BIO3-BIO1 (SEQ ID NO: 21) (Arabidopsis thaliana, UniProt B0F481)
T1 construct: 6xHis (N); thrombin cleavage site (N); made in house; host or cells: E. coli BL21 (DE3) bioA
T1 sequence (B0F481 with tags, fused parts or gaps): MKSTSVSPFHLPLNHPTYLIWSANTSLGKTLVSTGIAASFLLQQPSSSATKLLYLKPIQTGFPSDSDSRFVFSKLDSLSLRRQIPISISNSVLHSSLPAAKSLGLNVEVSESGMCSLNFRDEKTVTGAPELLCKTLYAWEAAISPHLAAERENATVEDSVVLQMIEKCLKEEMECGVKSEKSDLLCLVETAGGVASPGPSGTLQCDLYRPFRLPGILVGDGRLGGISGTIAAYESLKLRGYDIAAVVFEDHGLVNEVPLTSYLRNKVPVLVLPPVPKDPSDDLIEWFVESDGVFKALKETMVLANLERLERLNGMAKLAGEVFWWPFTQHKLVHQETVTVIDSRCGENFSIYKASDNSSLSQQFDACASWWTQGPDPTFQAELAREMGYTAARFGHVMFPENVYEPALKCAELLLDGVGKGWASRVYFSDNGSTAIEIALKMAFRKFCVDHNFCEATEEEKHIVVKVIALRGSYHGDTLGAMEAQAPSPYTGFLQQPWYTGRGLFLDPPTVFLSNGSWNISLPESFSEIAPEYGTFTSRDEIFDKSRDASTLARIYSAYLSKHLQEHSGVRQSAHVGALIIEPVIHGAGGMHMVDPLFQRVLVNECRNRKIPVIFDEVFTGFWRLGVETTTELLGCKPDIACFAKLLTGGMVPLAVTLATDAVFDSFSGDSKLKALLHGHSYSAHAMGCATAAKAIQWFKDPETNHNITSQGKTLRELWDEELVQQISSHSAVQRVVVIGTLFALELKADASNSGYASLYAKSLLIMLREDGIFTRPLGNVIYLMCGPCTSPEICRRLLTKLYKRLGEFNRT
Assay: DAPA-AT assay with spermidine as amine donor, fluorescent detection of DAPA:o-phthalaldehyde
Type: biochemical
Details: 10 μM spermidine, 1 μM KAPA, 60 minutes at 20° C.; for inhibition at 0.2 µM: inhibitor concentration 0.2 μM; for inhibition at 1 µM: inhibitor concentration 1 μM; for inhibition at 5 µM: inhibitor concentration 5 μM; for inhibition at 20 µM: inhibitor concentration 20 μM; for inhibition at 100 µM: inhibitor concentration 100 μM
Description: A pET-24 plasmid containing a DNA sequence encoding BIO3-BIO1 derived from Arabidopsis thaliana, codon-optimised for expression in E. coli, with the predicted N-terminal mitochondrial transit peptide removed and with an N-terminal 6×His-tag and thrombin cleavage site and under control of a T7 promoter (SEQ ID NO:38), was synthesised by Twist Bioscience. The plasmid was expressed in E. coli BL21 (DE3) bioA with 50 μg/mL kanamycin and 25 μg/mL chloramphenicol selection. Overnight cultures grown at 37° C. were used to inoculate 8×500 mL AIM in shake flasks at a ratio of 1:100. Cultures were grown at 37° C., 200 rpm for 3.5 hours and then overnight at 20° C. Cells were harvested by centrifugation for 30 minutes at 10 000 g. Cells were stored at −80° C. until extraction. 30 g of cell pellet from was thawed in 120 mL of IMAC buffer A (20 mM HEPES pH7.5, 25 mM imidazole, 500 mM sodium chloride, 0.15 mM pyridoxal phosphate, 0.5 mM TCEP, 1×complete Protease Inhibitor Tablet (Roche)). The resuspension was passed through a cell disrupter at 18 000 PSI and centrifuged at 50 000 g for 25 minutes at 4° C. The His-tagged BIO3-BIO1 protein was purified from the extract supernatant on an ÄKTA avant chromatography system (Cytiva) using a HisTrap FF column and eluted in IMAC buffer B ((20 mM HEPES pH7.5, 500 mM imidazole, 500 mM sodium chloride, 0.15 mM pyridoxal phosphate, 0.5 mM TCEP) followed by SEC using a HiLoad 26/60 Superdex200 column in SEC buffer (25 mM HEPES pH7.5, 150 mM sodium chloride, 0.15 mM pyridoxal phosphate, 0.5 mM TCEP). Protein concentration was measured and calculated using the absorbance at 280 nm. Extracts were diluted 1 in 4 and 10 uL was analysed by SDS PAGE.
To measure DAPA-AT enzyme activity in the presence of herbicide (candidate compound), 0.5 μL of the herbicide was incubated with 20 μL of enzyme mix (100 mM EPPS pH 8.6, 0.1 mM pyridoxal phosphate, 0.1 mg/mL BSA, 25 nM BIO3-BIO1 enzyme) for 10 minutes at 20° C. in a well of a 384-well black plate, followed by the addition of 20 μL of substrate mix (final concentration of 100 mM EPPS pH 8.6, 0.1 mM pyridoxal phosphate, 0.1 mg/mL BSA, 10 μM spermidine, 1 μM KAPA, 100 mM NaHCO3) and further incubation for 60 minutes at 20° C. The reaction was terminated by the addition of 50 μL of derivatisation mix consisting of 185 mM borate NaOH pH 9.4, 3 mM o-phthalaldehyde, 6 mM β-mercaptoethanol, 22.5% (v/v) ethanol, 3% (v/v) methanol. The fluorescent product produced by the reaction of DAPA with o-phthalaldehyde and β-mercaptoethanol was measured at 470 nm after excitation at 410 nm. The percentage inhibition was calculated using the equation, % inhibition=100×((((MAX−MIN)−(X−MIN))/(MAX−MIN))), where MIN and MAX are the average of the minimum reaction and maximum reaction controls and X is the test sample. Compounds are typically added directly to the assay plate in a serial 3× dilution from a top final concentration of 100 μM over 10 different concentrations. The percent inhibition values are fitted to a dose-response using the equation Y=Bottom+(Top−Bottom)/(1+((X^Hill Slope)/(IC50^Hill Slope))) to calculate the compound concentration that gives 50% inhibition (IC50).

Row | Structure (SMILES) | inhibition at 0.2 µM [%] | inhibition at 1 µM [%] | inhibition at 5 µM [%] | inhibition at 20 µM [%] | inhibition at 100 µM [%]
1 | CCn1c(C)c(-c2cc(OC(F)(F)F)ccc2Cl)c(=O)c(C(=O)O)c1-c1ccc(Cl)c(Cl)c1 [Compound D, 5-[2-chloro-5-(trifluoromethoxy)phenyl]-2-(3,4-dichlorophenyl)-1-ethyl-6-methyl-4-oxo-pyridine-3-carboxylic acid] | 51 | 84 | 95 | – | –
2 | C[C@@H](N)COc1cccc(C(=O)O)n1 [Compound E, [(1R)-2-(6-carboxypyridin-1-ium-2-yl)oxy-1-methyl-ethyl]ammonium; dichloride] | – | – | – | 80 | 94
3 | CCn1c(Cn2ccc(C(F)(F)F)n2)cc(=O)c(C(=O)O)c1-c1ccc(Cl)c(Cl)c1 [Compound L, 2-(3,4-dichlorophenyl)-1-ethyl-4-oxo-6-[[3-(trifluoromethyl)pyrazol-1-yl]methyl]pyridine-3-carboxylic acid] | 6 | 44 | 83 | – | –
4 | CC(O)C(N)CCCCC(=O)O (centres unmarked) [Compound B, [5-carboxy-1-(1-hydroxyethyl)pentyl]ammonium; chloride] | – | – | – | 84 | 95
5 | CCn1c(-c2ccc(Cl)c(Cl)c2)c(C(=O)O)c(=O)c2cc(F)ccc21 [Compound M, 2-(3,4-dichlorophenyl)-1-ethyl-6-fluoro-4-oxo-quinoline-3-carboxylic acid] | – | 58 | 82 | – | –
6 | CCn1c(C)c(-c2ccc(F)cc2F)c(=O)c(C(=O)O)c1-c1ccc(Cl)c(Cl)c1 [Compound C, 2-(3,4-dichlorophenyl)-5-(2,4-difluorophenyl)-1-ethyl-6-methyl-4-oxo-pyridine-3-carboxylic acid] | 29 | 64 | 85 | – | –
7 | CCOC(=O)c1nn(-c2ccc3c(c2)OC(F)(F)C(F)(F)O3)c2cccc(C(C)=O)c2c1=O [Compound A, ethyl 5-acetyl-4-oxo-1-(2,2,3,3-tetrafluoro-1,4-benzodioxin-6-yl)cinnoline-3-carboxylate] | – | 59 | 84 | – | –
